According to patent publication US10611750B2, “Tetrahydroquinoline compositions as bet bromodomain inhibitors” (FORMA Therapeutics, Inc., priority 2013, dated 2020):
Where two headings read alike, the source gives them in different places.

Assays:
[1] = target: T1, BRD4 Bromodomain 1 (BRD4 BD1) (Homo sapiens, UniProt O60885); assay: AlphaScreen binding assay, BRD4 BD1; conditions: His-tagged BRD4 BD1 50 nM, biotinylated H4 (1-21) K5/8/12/16 tetra-acetylated peptide 50 nM, compounds listed under IC50 range headings
T1 construct: 44-168 and BRD4 BD2
Summary of the method: (§1)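 Compound dilution series were mixed with His-tagged BRD4 bromodomain and biotinylated tetra-acetylated H4 (1-21) peptide at pH 7.3 (BD1 and peptide at 50 nM, BD2 and peptide at 100 nM). Donor and acceptor beads were then added, and plates were equilibrated at least 1 h before reading. IC50 values were fitted with a four-parameter logistic model.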

[2] = target: T2, BRD4 Bromodomain 2 (BRD4 BD2) (Homo sapiens, UniProt O60885); assay: AlphaScreen binding assay, BRD4 BD2; conditions: His-tagged BRD4 BD2 100 nM, biotinylated H4 (1-21) K5/8/12/16 tetra-acetylated peptide 100 nM, compounds listed under IC50 range headings
T2 construct: 333-460 were cloned, expressed, and purified to homogeneity
Summary of the method: as §1

[3] = test system: acute myelocytic leukemia (AML) cell line MV4-11; assay: Oncology cell growth assay (3-day proliferation, CellTiter-Glo); type: cell-based; conditions: Homo sapiens, MV4-11 cells, 3000 cells/well, compounds listed under IC50 range headings, read-out: MV411 IC50 (gIC50, inhibition of proliferation)
Summary of the method: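 A 3-day proliferation test used MV4-11 cells seeded at 3000 per well with eight compound concentrations (10 μM top, 3-fold dilution) at 37° C in 5% CO2. CellTiter-Glo luminescence defined viable cell signal. A four-parameter logistic curve against DMSO and background wells gave the gIC50.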

Row | SMILES | IC50 [1] [nM] | IC50 [2] [nM] | IC50 ([3]; MV4-11, 72 h) [nM] | IC50 ([3]; 72 hours) [nM]
1 | COC(=O)N1c2ccc(-c3cnn(C4CNC4)c3)c(Oc3cccc(F)c3F)c2CC[C@@H]1C [I-270, (S)-methyl 6-(1-(azetidin-3-yl)-1H-pyrazol-4-yl)-5-(2,3-difluorophenoxy)-2-methyl-3,4-dihydroquinoline-1(2H)-carboxylate] | 100 to 1000 | < 50 | < 500 | 
2 | COC(=O)N1c2ccc(-c3cnn(C4CN(C)C4)c3)c(Oc3ccc(F)cc3)c2CC[C@@H]1C [I-282, Methyl (S)-5-(4-fluorophenoxy)-2-methyl-6-(1-(1-methylazetidin-3-yl)-1H-pyrazol-4-yl)-3,4-dihydroquinoline-1(2H)-carboxylate] | 100 to 1000 | < 50 | < 500 | 
3 | COC(=O)N1c2ccc(-c3cnn(C4CN(C)C4)c3)c(OC3CCC3)c2CC[C@@H]1C [I-284, Methyl (S)-5-cyclobutoxy-2-methyl-6-(1-(1-methylazetidin-3-yl)-1H-pyrazol-4-yl)-3,4-dihydroquinoline-1(2H)-carboxylate] | 1000 to 10000 | 50 to 500 | 500 to 1000 | 
4 | COC(=O)N1c2ccc(-c3cnn(C4CCN(C)CC4)c3)c(OC3CCC3)c2CC[C@@H]1C [I-285, Methyl (S)-5-cyclobutoxy-2-methyl-6-(1-(1-methylpiperidin-4-yl)-1H-pyrazol-4-yl)-3,4-dihydroquinoline-1(2H)-carboxylate] | 100 to 1000 | < 50 | < 500 | 
5 | CCCOc1c(C2CCN(C(=O)OC)CC2)ccc2c1CC[C@H](C)N2C(C)=O [I-357, methyl (S)-4-(1-acetyl-2-methyl-5-propoxy-1,2,3,4-tetrahydroquinolin-6-yl)piperidine-1-carboxylate] | ≥ 10000 | ≥ 500 |  | > 1000
6 | CC(=O)N1c2ccc(-c3cnn(C4CCNCC4)c3)c(Nc3ccccc3)c2CC[C@@H]1C [I-359, (S)-1-(2-methyl-5-(phenylamino)-6-(1-(piperidin-4-yl)-1H-pyrazol-4-yl)-3,4-dihydroquinolin-1(2H)-yl)ethan-1-one] | 1000 to 10000 | 50 to 500 |  | < 500
7 | COC(=O)N1c2ccc(-c3cnn([C@@H]4CCNC[C@@H]4F)c3)c(OC3CCC3)c2CC[C@@H]1C [I-361, methyl (S)-5-cyclobutoxy-6-(1-((3S,4R)-3-fluoropiperidin-4-yl)-1H-pyrazol-4-yl)-2-methyl-3,4-dihydroquinoline-1(2H)-carboxylate] | < 100 | < 50 | < 500 | 
8 | COC(=O)N1c2ccc(-c3cnn([C@H]4CCNC[C@H]4F)c3)c(OC3CCC3)c2CC[C@@H]1C [I-362, methyl (2S)-5-cyclobutoxy-6-{1-[(3R,4S)-3-fluoropiperidin-4-yl]-1H-pyrazol-4-yl}-2-methyl-1,2,3,4-tetrahydroquinoline-1-carboxylate] | 100 to 1000 | < 50 | < 500 | 
9 | COC(=O)N1c2ccc(-c3cnn([C@H]4CCNC[C@@H]4F)c3)c(OC3CCC3)c2CC[C@@H]1C [I-363, methyl (2S)-5-cyclobutoxy-6-{1-[(3S,4S)-3-fluoropiperidin-4-yl]-1H-pyrazol-4-yl}-2-methyl-1,2,3,4-tetrahydroquinoline-1-carboxylate] | 100 to 1000 | < 50 | < 500 | 
10 | COC(=O)N1c2ccc(-c3cnn([C@H]4CCNC[C@@H]4F)c3)c(Oc3ccc(F)cc3)c2CC[C@@H]1C [I-364, methyl (2S)-5-(4-fluorophenoxy)-6-{1-[(3S,4S)-3-fluoropiperidin-4-yl]-1H-pyrazol-4-yl}-2-methyl-1,2,3,4-tetrahydroquinoline-1-carboxylate] | 100 to 1000 | < 50 | < 500 | 
11 | COC(=O)N1c2ccc(-c3cnn([C@@H]4CCNC[C@@H]4F)c3)c(Oc3ccc(F)cc3)c2CC[C@@H]1C [I-365, methyl (2 S)-5-(4-fluorophenoxy)-6-{1-[(3S,4R)-3-fluoropiperidin-4-yl]-1H-pyrazol-4-yl}-2-methyl-1,2,3,4-tetrahydroquinoline-1-carboxylate] | 100 to 1000 | < 50 | < 500 | 
12 | COC(=O)N1c2ccc(-c3cnn([C@H]4CCNC[C@H]4F)c3)c(Oc3ccc(F)cc3)c2CC[C@@H]1C [I-366, methyl (2 S)-5-(4-fluorophenoxy)-6-{1-[(3R,4S)-3-fluoropiperidin-4-yl]-1H-pyrazol-4-yl}-2-methyl-1,2,3,4-tetrahydroquinoline-1-carboxylate] | 100 to 1000 | < 50 | < 500 | 

Further lines, with some results ahead:

Row | IC50 [1] [nM] | IC50 [2] [nM] | IC50 ([3]; MV4-11, 72 h) [nM] | SMILES | IC50 ([3]; 72 hours) [nM]
13 | 100 to 1000 | < 50 | < 500 | C[C@H]1CCc2c(ccc(-c3cnn(C4CNC4)c3)c2Oc2cccc(F)c2F)N1C(=O)C1CC1 [I-268, (S)-(6-(1-(azetidin-3-yl)-1H-pyrazol-4-yl)-5-(2,3-difluorophenoxy)-2-methyl-3,4-dihydroquinolin-1(2H)-yl)(cyclopropyl)methanone] | 
14 | 100 to 1000 | < 50 | < 500 | COC(=O)N1c2ccc(-c3cnn(C4CCN(C)CC4)c3)c(Oc3ccc(F)cc3)c2CC[C@@H]1C [I-283, Methyl (S)-5-(4-fluorophenoxy)-2-methyl-6-(1-(1-methylpiperidin-4-yl)-1H-pyrazol-4-yl)-3,4-dihydroquinoline-1(2H)-carboxylate] | 
15 | 1000 to 10000 | 50 to 500 | < 500 | CC(=O)N1c2ccc(-c3cnn(C4CC4)c3)c(Oc3ncccc3C)c2CC[C@@H]1C [I-286, (S)-1-(6-(1-cyclopropyl-1H-pyrazol-4-yl)-2-methyl-5-(3-methylpyridin-2-yloxy)-3,4-dihydroquinolin-1 (2H)-yl)ethanone] | 
16 | 100 to 1000 | < 50 | < 500 | CC(=O)N1c2ccc(-c3cnn(C4CC4)c3)c(Oc3ccc(C)cn3)c2CC[C@@H]1C [I-287, (S)-1-(6-(1-cyclopropyl-1H-pyrazol-4-yl)-2-methyl-5-(5-methylpyridin-2-yloxy)-3,4-dihydroquinolin-1(2H)-yl)ethanone] | 
17 | 100 to 1000 | < 50 | < 500 | CC(=O)N1c2ccc(-c3cnn(C4CC4)c3)c(Oc3ccc(Cl)cn3)c2CC[C@@H]1C [I-288, (S)-1-(5-(5-chloropyridin-2-yloxy)-6-(1-cyclopropyl-1H-pyrazol-4-yl)-2-methyl-3,4-dihydroquinolin-1(2H)-yl)ethanone] | 
18 | 1000 to 10000 | 50 to 500 | 500 to 1000 | CC(=O)N1c2ccc(-c3cnn(C4CC4)c3)c(Oc3ncc4[nH]cnc4n3)c2CC[C@@H]1C [I-289, (S)-1-(5-(7H-purin-2-yloxy)-6-(1-cyclopropyl-1H-pyrazol-4-yl)-2-methyl-3,4-dihydroquinolin-1(2H)-yl)ethanone] | 
19 | 1000 to 10000 | < 50 | < 500 | C/C=C/n1c(Oc2c(-c3cnn(C4CC4)c3)ccc3c2CC[C@H](C)N3C(C)=O)nc2ccccc21 [I-351, (S,E)-1-(6-(1-cyclopropyl-1H-pyrazol-4-yl)-2-methyl-5-(1-(prop-1-enyl)-1H-benzo[d]imidazol-2-yloxy)-3,4-dihydroquinolin-1(2H)-yl)ethanone] | 
20 | ≥ 10000 | ≥ 500 | > 1000 | CCCOc1c(C2CCNCC2)ccc2c1CC[C@H](C)N2C(C)=O [I-353, (S)-1-(2-methyl-6-(piperidin-4-yl)-5-propoxy-3,4-dihydroquinolin-1(2H)-yl)ethan-1-one] | 
21 | ≥ 10000 | ≥ 500 | > 1000 | CCCOc1c(C2CCN(C(C)=O)CC2)ccc2c1CC[C@H](C)N2C(C)=O [I-354, (S)-1-(4-(1-acetyl-2-methyl-5-propoxy-1,2,3,4-tetrahydroquinolin-6-yl)piperidin-1-yl)ethan-1-one] | 
22 | ≥ 10000 | ≥ 500 | > 1000 | CCCOc1c(C2CCN(S(C)(=O)=O)CC2)ccc2c1CC[C@H](C)N2C(C)=O [I-355, (S)-1-(2-methyl-6-(1-(methylsulfonyl)piperidin-4-yl)-5-propoxy-3,4-dihydroquinolin-1 (2H)-yl)ethan-1-one] | 
23 | ≥ 10000 | 50 to 500 | > 1000 | CCCOc1c(C2CCN(C(=O)NCC)CC2)ccc2c1CC[C@H](C)N2C(C)=O [I-356, (S)-4-(1-acetyl-2-methyl-5-propoxy-1,2,3,4-tetrahydroquinolin-6-yl)-N-ethylpiperidine-1-carboxamide] | 
24 | ≥ 10000 | ≥ 500 | > 1000 | CCCOc1c(C2CCN(CC)CC2)ccc2c1CC[C@H](C)N2C(C)=O [I-358, (S)-1-(6-(1-ethylpiperidin-4-yl)-2-methyl-5-propoxy-3,4-dihydroquinolin-1(2H)-yl)ethan-1-one] | 
25 | 100 to 1000 | 50 to 500 | 500 to 1000 | CC(=O)N1c2ccc(-c3cnn(C4CC4)c3)c(OCCNS(C)(=O)=O)c2CC[C@@H]1C [I-382] | 
26 | < 100 | < 50 | < 500 | CC(=O)N1c2ccc(-c3cnn(C4CC4)c3)c(OCC3CCCC3)c2CC[C@@H]1C [I-385] | 
27 | 100 to 1000 | < 50 | < 500 | CCCOc1c(-c2cnn(C3CC3)c2)ccc2c1CC[C@H](C)N2C(C)=O [I-387] | 
